According to PMC7400577 (Scientific Reports, 2020):
Values joined by “and” are separate entries in the source; they are usually repeats but may differ in a detail not shown here. Identical values can stand only once. Like-named read-outs stand apart in the source and are kept apart here.

Key:
hBGT1 [1] = target: T1, hBGT1 (Homo sapiens, UniProt P48065); type: cell-based; settings: for IC50: 30 nM [3H]GABA, 3 min, CHO Flp-In cells stably expressing hBGT1; for decrease of hBGT1 inhibitory potency compared to ATPCA: [3H]GABA uptake; for decrease of hBGT1 inhibitory potency compared to ATPCA / subtype-selectivity for hBGT1 over the other hGATs: CHO Flp-In cells; for subtype-selectivity for hBGT1 over the other hGATs: estimated from [3H]GABA uptake IC50 values
T1 construct: expressed in transfected cells
T1 sequence (P48065 1-614): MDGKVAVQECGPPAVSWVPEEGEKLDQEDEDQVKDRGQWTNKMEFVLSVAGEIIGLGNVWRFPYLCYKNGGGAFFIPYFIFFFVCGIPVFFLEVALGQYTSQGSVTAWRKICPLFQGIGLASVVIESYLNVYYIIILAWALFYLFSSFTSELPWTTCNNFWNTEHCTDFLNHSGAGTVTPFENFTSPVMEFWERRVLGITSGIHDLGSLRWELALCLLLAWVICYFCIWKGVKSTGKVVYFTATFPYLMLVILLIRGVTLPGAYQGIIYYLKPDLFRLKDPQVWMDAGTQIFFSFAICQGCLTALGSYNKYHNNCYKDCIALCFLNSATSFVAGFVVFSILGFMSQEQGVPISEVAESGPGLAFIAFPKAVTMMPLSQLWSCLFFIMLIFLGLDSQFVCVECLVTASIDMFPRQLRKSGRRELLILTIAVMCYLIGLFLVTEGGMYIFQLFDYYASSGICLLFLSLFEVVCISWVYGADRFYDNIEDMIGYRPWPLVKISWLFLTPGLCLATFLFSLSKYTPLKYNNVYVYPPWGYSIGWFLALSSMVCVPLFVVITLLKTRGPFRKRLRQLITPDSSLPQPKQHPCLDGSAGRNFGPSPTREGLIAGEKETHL
Description: CHO Flp-In and tsA201 cells were cultured at 37 °C in a humidified atmosphere of […] and 5% CO2. As previously described[38],[63], CHO Flp-In cells stably expressing the hGATs were cultured in Ham’s F12 Nutrient Mix supplemented with 10% FBS, 1% P/S and plasmocin (5 µg/mL) under the selection pressure of hygromycin B (200 µg/mL). DMEM with GlutaMAX-I supplemented with 10% FBS and 1% P/S was used as growth medium for the tsA201 cells, which were transfected with DNA constructs using PolyFect according to the manufacturer’s specifications (Qiagen, West Sussex, UK), but with half of the recommended reagent volumes.
Uptake assays were performed in PDL-coated white 96-well polystyrene cell culture microplates (PerkinElmer, Boston, MA, USA) as previously described[38],[63]. […] Assay buffer was HBSS supplemented with 20 mM HEPES, 1 mM CaCl2 and 1 mM MgCl2, pH 7.4. […] After termination, scintillation liquid (MicroScint-20, PerkinElmer) was added and the radioactivity measured in a TopCount NXT Microplate Scintillation Counter (PerkinElmer).
(§1) Data analysis and statistical evaluation were performed in GraphPad Prism 7.02 (GraphPad Software, San Diego, CA, USA). Concentration-uptake inhibition curves, generated from the radioligand-based uptake assays, were fitted by non-linear regression, using the equation for sigmoidal concentration–response with variable slope: Y = Bottom + (Top–Bottom)/(1 + 10^((logIC50 − X) × HillSlope)), where Y is the response, X is the logarithm of the concentration, Top and Bottom are the plateaus in same units as Y, logIC50 is the concentration giving a response halfway between Bottom and Top, and the HillSlope is the steepness of the curve. For the substrate concentration–response curves generated from the FMP assay, the same equation was used but with logEC50 instead for logIC50. Unless otherwise stated, data are presented as means ± S.E.M. of at least three independent pooled experiments performed in triplicates.

hBGT1 [2] = target: T1, hBGT1; assay: FLIPR Membrane Potential (FMP) assay at hBGT1 stably expressed in CHO Flp-In cells; type: cell-based; settings: for substrate character at hBGT1 in FMP assay: concentration-dependent increase in fluorescence signal; for Mean Rmax as % of GABA Rmax ± S.E.M. / EC50: hBGT1 stably expressed in CHO Flp-In cells; for Mean Rmax as % of GABA Rmax ± S.E.M.: FMP assay; for EC50: three independent experiments
Description: The fluorescence-based FMP assay was performed as previously described, for the functional characterization of the electrogenic transport of substrates via hBGT1. Briefly, CHO Flp-In cells stably expressing hBGT1 or hGAT1 were plated (~ 50,000 cells/well) into black PDL-coated 96-well plates with clear bottom (VWR, Radnor, PA, USA). The next day, the growth medium was removed, and cells were washed once with HBSS assay buffer and FMP Blue Dye (Molecular Devices, Crawley, UK), added, and incubated. Ligands were added via the NOVOStar plate reader (BMG Labtech GmbH, Offenburg, Germany), preheated to 37 °C, approximately 10 min before reading of the cell plate. The fluorescence signals were measured for 33.8 s upon ligand addition using an emission and excitation wavelength of […], respectively. Electrogenic transport of substrates via hBGT1 will lead to an influx of the negatively charged FMP Blue dye that will bind to intracellular proteins and lipids resulting in an increase in the fluorescence signal.
as §1

hBGT1 [3] = target: T1, hBGT1; settings: [3H]GABA uptake, recombinant hBGT1; adapted from Al-Khawaja et al.; cited from earlier work
hGAT3 = target: T2, hGAT3 (Homo sapiens, UniProt P48066); settings: [3H]GABA uptake, recombinant hGAT3; adapted from Al-Khawaja et al.; cited from earlier work
T2 construct: expressed in transfected cells
T2 sequence (P48066 1-632): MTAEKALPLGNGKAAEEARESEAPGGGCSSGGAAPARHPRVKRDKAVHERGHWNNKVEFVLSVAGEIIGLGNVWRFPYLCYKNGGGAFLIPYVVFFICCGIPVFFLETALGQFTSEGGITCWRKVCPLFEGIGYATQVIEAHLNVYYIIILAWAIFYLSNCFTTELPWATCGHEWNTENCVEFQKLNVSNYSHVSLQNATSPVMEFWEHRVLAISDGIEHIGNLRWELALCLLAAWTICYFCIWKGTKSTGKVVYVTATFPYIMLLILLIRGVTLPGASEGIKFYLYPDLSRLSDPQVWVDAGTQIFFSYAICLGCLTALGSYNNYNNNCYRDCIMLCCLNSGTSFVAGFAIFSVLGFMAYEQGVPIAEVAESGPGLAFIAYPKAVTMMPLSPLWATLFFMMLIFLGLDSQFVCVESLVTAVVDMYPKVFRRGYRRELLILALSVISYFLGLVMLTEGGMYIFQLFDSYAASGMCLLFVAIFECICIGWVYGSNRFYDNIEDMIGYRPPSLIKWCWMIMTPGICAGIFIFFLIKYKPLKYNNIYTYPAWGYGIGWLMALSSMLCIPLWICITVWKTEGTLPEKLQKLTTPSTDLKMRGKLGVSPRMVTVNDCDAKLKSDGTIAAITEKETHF

hBGT1 [4] = target: T1, hBGT1; settings: previously demonstrated; cited from earlier work
[5] = read-out: pIC50 ± S.E.M. hBGT1 (converted)

Row | SMILES | IC50 (hBGT1 [1]; read-out: IC50 hBGT1) | decrease of hBGT1 inhibitory potency compared to ATPCA (hBGT1 [1]) | subtype-selectivity for hBGT1 over the other hGATs (hBGT1 [1]) | substrate character at hBGT1 in FMP assay (hBGT1 [2]) | IC50 (hBGT1 [1]; [5]) | Mean Rmax as % of GABA Rmax ± S.E.M. (hBGT1 [2]) | EC50 (hBGT1 [2]) | IC50 (hBGT1 [3]) | pIC50 ± S.E.M. hBGT1 (hBGT1 [3]) | IC50 (hGAT3) | pIC50 ± S.E.M. hGAT3 (hGAT3) | substrate character at hBGT1 in FMP assay (hBGT1 [4])
1 | CCN1CC(C(=O)O)CN=C1N.Cl (stereo not drawn) [compound 3] | 86 µM | 20–65 fold and 34 fold | at least 12 times | substrates for hBGT1 | – | – | – | – | – | – | – | –
2 | NC1=NC=C(C(=O)O)CN1.O=C(O)C(F)(F)F [compound 11] | 48 µM | 19 fold | ≥ 21 times | substrates for hBGT1 | 46.8 µM | 95 ± 4.0 % of GABA Rmax | 75 µM | – | – | – | – | –
3 | NC1=NCC(C(=O)O)CN1 (stereo not drawn) [ATPCA, 2-amino-1,4,5,6-tetrahydropyrimidine-5-carboxylic acid, reference compound] | – | – | – | – | – | – | – | 2.5 µM | 5.60 ± 0.11 | 99 µM | 4.00 ± 0.03 | substrate for hBGT1
4 | C[C@@H]1N=C(N)NC[C@@H]1C(=O)O (single isomer, unassigned) [l-15a] | < 100 µM | – | ≥ 29 times | substrates for hBGT1 | 33.9 µM | 36 ± 2.9 % of GABA Rmax | 40 µM | – | – | – | – | –
5 | NC1=NCC(C(=O)O)CC1 (stereo not drawn) [compound 2, 6-amino-2,3,4,5-tetrahydropyridine-3-carboxylic acid, reference compound] | < 100 µM | fivefold | – | substrates for hBGT1 | 12.9 µM | 103 ± 3.9 % of GABA Rmax and 76 ± 2.7 % of GABA Rmax | – | 9.8 µM | – | – | – | –
6 | Cl.NC1=NCC(C(=O)O)CN1Cc1ccccc1 (stereo not drawn) [compound 4] | 163 µM | 20–65 fold | – | – | – | – | – | – | – | – | – | –
